Assay results published in patent US11208696B2, “Prognostic biomarkers for TTK inhibitor chemotherapy” (NETHERLANDS TRANSLATIONAL RESEARCH CENTER B.V., priority 2015, dated 2021).

Key:
[1] = system: HCT116 cells; assay: Proliferation assay with isogenic cell line pair: parental HCT116 (S45del/+) and isogenic derivative lacking mutated CTNNB1; assay type: cell-based, human; settings: for Δefficacy: difference in maximum percentage effect, isogenic (−/+) versus parental HCT116 (S45del/+), negative = parental more sensitive
[2] = system: CTNNB1-mutant cancer cell lines (A427, LS 174T, HCT116, SW48); assay: Cell proliferation assays, panel of sixty-six cancer cell lines: CTNNB1-mutant cell lines; assay type: cell-based, human

| Structure (SMILES) | Δefficacy [1] | ΔpIC50 [1] | ΔpIC50 [2] | IC50 ([2]; Homo sapiens, 120 h, read-out: pIC50 average Mutant (converted)) |
| --- | --- | --- | --- | --- |
| CCc1n[nH]c(CC)c1NC(=O)c1ccn2c1CCc1cnc(Nc3ccc(N4CCN(C)CC4)cc3OC(F)F)nc1-2 [Example 12, N-(3,5-diethyl-1H-pyrazol-4-yl)-2-[2-(difluoromethoxy)-4-(4-methylpiperazin-1-yl)anilino]-5,6-dihydropyrimido[4,5-e]indolizine-7-carboxamide] | −18 | – | – | – |
| COCC(=O)N1CCN(c2ccc(Nc3ncc4c(n3)-n3ccc(C(=O)Nc5c(C)cccc5C)c3CC4)c(OC)c2)CC1 [Example 17, N-(2,6-dimethylphenyl)-2-[2-methoxy-4-[4-(2-methoxyacetyl)piperazin-1-yl]anilino]-5,6-dihydropyrimido[4,5-e]indolizine-7-carboxamide] | −16 | – | – | – |
| COc1ccc(Oc2cc(NCC3CCOCC3)c3ncc(-c4ccc(C(=O)NC5CC5)c(C)c4)n3n2)c(F)c1F [Example 5, N-cyclopropyl-4-[6-(2,3-difluoro-4-methoxy-phenoxy)-8-(tetrahydropyran-4-ylmethylamino)imidazo[1,2-b]pyridazin-3-yl]-2-methyl-benzamide, reference compound] | −26 | – | – | – |
| COc1cc(C(=O)NC2CCOCC2)ccc1Nc1ncc2c(n1)-n1ccc(C(=O)Nc3c(C)cccc3C)c1CC2 [Example 8, N-(2,6-dimethylphenyl)-2-[2-methoxy-4-(tetrahydropyran-4-ylcarbamoyl)anilino]-5,6-dihydropyrimido[4,5-e]indolizine-7-carboxamide] | −11 | −0.29 | −0.57 | 0.011 µM |
